Data published in patent US20180221329A1, “CIS- AND TRANS-SUFFRUTICOSOL D AS THERAPEUTIC AGENTS” (MIDDLE TENNESSEE STATE UNIVERSITY, priority 2015, published 2018).
Where two headings read alike, the source gives them in different places.

Legend:
[1] = test system: A549 (lung), BT20 (breast), MCF7 (breast) and U2OS (osteosarcoma) cancer cell lines; test: Cell proliferation assay, range over the four cancer cell lines; assay type: cell-based, human; settings: for IC50: A549, BT20, MCF7, U2OS, 48 h, read-out: IC50 values in all four cancer cell lines (range); for selectivity (range over cancer cell lines): cancer cell lines versus normal HMEC
Protocol: (§1) Cell culture. Four human cancer cell lines including A549 (lung carcinoma), BT20 (estrogen receptor-negative human breast adenocarcinoma), MCF-7 (estrogen receptor-positive human breast adenocarcinoma) and U2OS (human osteosarcoma) were purchased from American Type Culture Collection (ATCC). An A549 cell line that stably expresses Green Fluorescent Protein (GFP) was purchased from Cell BioLabs Inc. (San Diego, Calif., USA). A549, A549-GFP and BT20 cells were cultured in RPMI 1640 media (Sigma-Aldrich, St. Louis, Mo., USA), MCF7 cells were cultured in DMEM medium (ATCC, Manassas, Va., USA), and U20S cells were cultured in McCoy's 5A medium (ATCC, Manassas, Va., USA). As a control, HMEC cells (primary human mammary breast epithelial cells) were purchased from ATCC and cultured in McCoy's 5A medium. All medium contained 10% FBS (Sigma-Aldrich, St. Louis, Mo., USA) and 1% streptomycin and penicillin (Sigma-Aldrich, St. Louis, Mo., USA). These cells were incubated in a humid environment with 5% CO2 at 37° C.
(§2) Cell proliferation assay. The resazurin reduction reagent AlamarBlue (Invitrogen, Frederick, Md., USA) was used to evaluate the cytotoxicity of the compounds. Cells were plated at a density of 5×10^3 cells per well in 96-well microplates with 100 μl culture medium, and were allowed to attach for 16 h prior to treatment. Next, all the medium was replaced with medium containing the cis- or trans-suffruticosol D compounds at seven different concentrations: 320, 100, 32, 10, 3.2, 1.0, and 0.32 μM. The cells were placed in an incubator for 48 h at 37° C. Cells that were treated with medium-containing vehicle (1% DMSO) only serve as negative control. Subsequently, AlamarBlue solution was added to the medium and the cells were incubated in the CO2 incubator for 1 h. The fluorescent intensity change of the dye was measured at Ex 555 nm and Em 590 nm using a plate reader (Molecular Devices, Sunnyvale, Calif., USA). The cytotoxicity was examined by determining by IC50, the dose that inhibited 50% of cell growth, using GraphPad Prism software (GraphPad Software, La Jolla, Calif., USA).

[2] = test system: A549 (lung carcinoma) cells; test: Cell proliferation assay (AlamarBlue), A549; assay type: cell-based, human; settings: for IC50: A549, 48 h, AlamarBlue; for Selectivity: A549 versus normal HMEC cells
Protocol: as §1, §2
(§3) Table 1. IC50 values of cis- and trans-suffruticosol D in selected cancer and normal cell lines. Cells were treated with various concentrations of cis- or trans-suffruticosol D for 48 h, and the viability of cells was evaluated with AlamarBlue dye.

[3] = test system: MCF-7 (estrogen receptor-positive human breast adenocarcinoma) cells; test: Cell proliferation assay (AlamarBlue), MCF-7; assay type: cell-based; settings: for IC50: MCF-7, 48 h, AlamarBlue; for Selectivity: MCF-7 versus normal HMEC cells
Protocol: as §1, §2, §3

[4] = test system: phosphorylated NF-κB p65; test: Western blotting analysis of TNF-α-induced NF-κB p65 phosphorylation; assay type: cell-based, human; settings: 50 μM, 3 h, then 10 ng/mL TNF-α 30 min, A549
Protocol: Western blotting analysis. A549 cells were treated with 50 μM of cis- or trans-suffruticosol D for 3 h then incubated with 10 ng/mL of TNF-α for 30 min. Cells treated with the NF-κB inhibitor Bay11-7082 (10 μM) (Sigma-Aldrich) were used as a positive control, and cells treated with vehicle only were used as a negative control. After treatment, the cells were lysed using M-PER mammalian protein extraction reagent (Pierce PERBIO, Rockford, Ill.) containing proteinase and phosphatase inhibitors (Sigma-Aldrich, USA) and centrifuged at 13,000 rpm for 5 min at 4° C. A Pierce BCA protein assay kit (Thermo Fisher Scientific, Waltham, Mass., USA) was used to determined protein concentrations. Proteins were separated on a 4-20% Tris Glycine gel (Thermo Fisher Scientific, Waltham, Mass., USA), and electrophoretically transferred to a PVDF membrane. The following primary antibodies were used: phosphorylated-NF-κB p65, NF-κB p65 (Cell Signaling Technology, Danver, Mass.) and actin (Santa Cruz Biotechnology, Dallas, Tex.). The membrane was incubated with the primary antibodies at a 1:1000 concentration at 4° C. overnight. After washing with 1×PBS 5 times, the membrane was incubated for 2 h at room temperature with HRP linked anti-rabbit IgG secondary antibodies. […]

Compound | IC50 [1] [µM] | selectivity (range over cancer cell lines) [1] | IC50 ([2]; listed as cis-SD) [µM] | Selectivity ([2]; listed as cis-SD) | IC50 ([3]; listed as cis-SD) [µM] | Selectivity ([3]; listed as cis-SD) | expression of phosphorylated NF-κB p65 upon TNF-α stimulation [4] | IC50 ([1]; Homo sapiens) [µM] | Selectivity ([2]; listed as trans-SD) | IC50 ([2]; Homo sapiens) [µM] | IC50 ([3]; listed as trans-SD) [µM] | Selectivity ([3]; listed as trans-SD)
Oc1ccc(C=Cc2c3c(cc4c2[C@@H](c2cc(O)cc(O)c2)[C@H](c2ccc(O)cc2)O4)O[C@H](c2ccc(O)cc2)[C@@H]3c2cc(O)cc(O)c2)cc1 [cis-suffruticosol D] | 13.4 to 46.8 | 9.2-14.7 fold | 17.1 ± 1 | 15.8 | 46.8 ± 3.3 | 5.8 | blocked as effectively as the blockage caused by the Bay11-7082 inhibitor control | – | – | – | – | –
Oc1ccc(/C=C/c2c3c(cc4c2[C@@H](c2cc(O)cc(O)c2)[C@H](c2ccc(O)cc2)O4)O[C@H](c2ccc(O)cc2)[C@@H]3c2cc(O)cc(O)c2)cc1 [trans-suffruticosol D] | 9.93 to 20.8 | 5.8-20 fold | – | – | – | – | almost completely blocked | 9.93 to 15.8 | 12.3 | 11.9 ± 1.2 | 15.8 ± 1.6 | 9.3
